Values of other authors in US7884104B2, “Aminopiperidines as dipeptidyl peptidase-IV inhibitors for the treatment or prevention of diabetes” (Merck Sharp & Dohme Corp., priority 2004, dated 2011).

Tests used:
[1] = test system: cardiac allograft; details: rats; doubled from day 7 to day 14
[2] = target: T1, DPP-IV (Homo sapiens, UniProt P27487)
T1 construct: GRF is rapidly degraded in plasma to GRF[344]; host or cells: plasma (endogenous enzyme activity)

[3] = test system: hematopoiesis; details: mouse, cyclophosphamide-induced neutropenia

T1 sequence (P27487 39-766 limits assumed, species assumed): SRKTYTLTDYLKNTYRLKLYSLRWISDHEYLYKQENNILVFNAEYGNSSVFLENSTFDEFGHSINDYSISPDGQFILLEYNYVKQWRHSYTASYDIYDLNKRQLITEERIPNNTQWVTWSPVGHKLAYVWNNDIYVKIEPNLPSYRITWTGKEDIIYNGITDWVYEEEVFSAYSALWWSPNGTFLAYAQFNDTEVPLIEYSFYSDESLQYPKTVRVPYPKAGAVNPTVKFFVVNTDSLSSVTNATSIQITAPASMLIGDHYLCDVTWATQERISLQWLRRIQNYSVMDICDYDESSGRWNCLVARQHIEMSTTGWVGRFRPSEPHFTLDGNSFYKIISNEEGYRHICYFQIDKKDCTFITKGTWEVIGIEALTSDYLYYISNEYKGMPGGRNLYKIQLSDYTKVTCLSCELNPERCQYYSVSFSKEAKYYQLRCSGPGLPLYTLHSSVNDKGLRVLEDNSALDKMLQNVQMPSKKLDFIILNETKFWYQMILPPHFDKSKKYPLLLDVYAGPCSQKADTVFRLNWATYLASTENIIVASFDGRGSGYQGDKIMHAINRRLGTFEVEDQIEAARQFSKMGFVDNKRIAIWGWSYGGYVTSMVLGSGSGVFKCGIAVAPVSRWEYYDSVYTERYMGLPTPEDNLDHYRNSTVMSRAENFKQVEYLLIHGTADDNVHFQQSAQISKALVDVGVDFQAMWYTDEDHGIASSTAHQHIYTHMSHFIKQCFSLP

Compound: CC(C)N1CCC(c2ccccc2)(c2ccccc2)CC1 [Prodipine, Pro-Pro-diphenyl-phosphonate]
- cardiac allograft survival [1]: 14 day

Compound: diprotin A
- effect on degradation of GRF in plasma [2]: prevented

Compound: CC(C)[C@H](N)C(=O)N1CCC[C@H]1B(O)O [Val-Boro-Pro]
- effect on hematopoiesis [3]: stimulated hematopoiesis
